Results taken from US20080207733A1, “Composition for the Treatment of Vitiligo” (priority 2003, published 2008).
“And” between values parts separate entries of the source, which are not always exact repeats. Equal values may be shown once.

Assays:
[1] = second part of Table 2
[2] = test system: patients suffering from vitiligo; test: Clinical trial in humans, repigmentation in vitiligo
[3] = toxicological, teratologic and clinical trials
[4] = product to be used in the trial
[5] = topical, 3 times a week, 6 months, Melagenina Plus-resistant patients

L-Proline concentration, Fresh ([1]; hydroalcoholic solution just prepared): 1.01 mg/mL
L-Proline concentration, 12 months ([1]; hydroalcoholic solution, 12 months): 1.00 mg/mL
L-Proline concentration, 24 months ([1]; hydroalcoholic solution, 24 months): 1.00 mg/mL
Spectrum determination, Fresh (200-205 nm, hydroalcoholic solution just prepared): 0.051 UA
Spectrum determination, 12 months (200-205 nm, hydroalcoholic solution, 12 months): 0.072UA
Spectrum determination, 24 months (200-205 nm, hydroalcoholic solution, 24 months): 0.071 UA
remains stable after preparing the solution (hydroalcoholic solution, spectrophotometric determinations and aminoacids analysis): 2 years
SMILES: O=C(O)[C@@H]1CCCN1 [L-Proline]
reversibility of repigmentant effect once application is discontinued ([2]; human, in vivo): irreversible
Effect Evaluation ([2]; per patient No. 1-21, 1.5 mg/mL hydroalcoholic solution at 80%, topical, 3 times a week, 6 months): Noteworthy (10×) and Poor (2×)
increase of lesions or local or systemic side effect ([2]; topical, 3 times a week, 6 months): no increase of lesions or local or systemic side effect were reported in any of the cases
patients that did not show response to the treatment [2, 5]: 2 patients of 22
patients that showed noteworthy to moderate response [2, 5]: 18 patients
adverse reactions [3]: No severe adverse reactions were reported
dermal and ophthalmic irritability [4]: innocuousness
